Tests used:
full length human TREX1 = biological target: T1, full length human TREX1 (Homo sapiens, UniProt Q9NSU2); test: TREX1 Biochemical Assay (fluorescence, dsDNA substrate degradation); details: 150 pM TREX1, 60 nM dsDNA substrate, 25 minutes at room temperature
T1 construct: N-terminally His-Tev tagged full length human TREX1; His-TEV (His tag with TEV site) (N); made in house; host or cells: E. coli
T1 sequence (Q9NSU2 1-314): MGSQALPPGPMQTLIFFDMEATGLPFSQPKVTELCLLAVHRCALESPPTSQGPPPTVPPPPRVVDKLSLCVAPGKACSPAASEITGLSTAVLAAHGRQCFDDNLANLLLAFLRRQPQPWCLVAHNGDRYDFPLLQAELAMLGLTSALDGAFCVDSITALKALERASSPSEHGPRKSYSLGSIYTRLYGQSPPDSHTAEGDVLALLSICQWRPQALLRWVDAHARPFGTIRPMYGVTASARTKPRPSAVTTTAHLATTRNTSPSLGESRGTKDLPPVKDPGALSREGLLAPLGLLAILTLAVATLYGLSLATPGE
Method: Degradation of the dsDNA liberates free fluorophore to produce a fluorescent signal. Specifically, 7.5 μL of N-terminally His-Tev tagged full length human TREX1 (expressed in E. coli and purified in house) in reaction buffer (50 mM Tris (pH 7.4), 150 mM NaCl, 2 mM DTT, 0.1 mg/mL BSA, 0.01% (v/v) Tween-20 and 100 mM MgCl2) was added to a 384-well Black ProxiPlate Plus (Perkin Elmer) which already contained compound (150 nL) at varying concentrations as a 10 point dose-response in DMSO. To this was added 7.5 μL of dsDNA substrate (Strand A: 5′ TEX615/GCT AGG CAG 3′; Strand B: 5′ CTG CCT AGC/IAbRQSp (Integrated DNA Technologies)) in reaction buffer. Final concentrations were 150 pM TREX1, 60 nM dsDNA substrate in reaction buffer with 1.0% DMSO (v/v). After 25 minutes at room temperature, reactions were quenched by the addition of 5 μL of stop buffer (same as reaction buffer plus 200 mM EDTA). Final concentrations in the quenched reaction were 112.5 pM TREX1, 45 nM DNA and 50 mM EDTA in a volume of 20 μL. After a 5-minute incubation at room temperature, plates were read in a laser sourced Envision (Perkin-Elmer), measuring fluorescence at 615 nm following excitation w/570 nm light. IC50 values were calculated by comparing the measured fluorescence at 615 nm ratio relative to control wells pre-quenched w/stop buffer (100% inhibition) and no inhibitor (0% inhibition) controls as using non-linear least square four parameter fits and either Genedata or GraphPad Prism (GraphPad Software, Inc.).

[1] = biological target: T2, human TREX2 (residues M44-A279) (Homo sapiens, UniProt Q9BQ50); test: TREX2 Biochemical Assay (fluorescence, dsDNA substrate degradation); details: 2.5 nM TREX2, 60 nM dsDNA substrate, 25 minutes at room temperature
T2 construct: human TREX2 (residues M44-A279, expressed in E. coli); His-TEV (His tag with TEV site) (N); made in house; host or cells: E. coli
T2 sequence (Q9BQ50 44-279 isoform Q9BQ50-1): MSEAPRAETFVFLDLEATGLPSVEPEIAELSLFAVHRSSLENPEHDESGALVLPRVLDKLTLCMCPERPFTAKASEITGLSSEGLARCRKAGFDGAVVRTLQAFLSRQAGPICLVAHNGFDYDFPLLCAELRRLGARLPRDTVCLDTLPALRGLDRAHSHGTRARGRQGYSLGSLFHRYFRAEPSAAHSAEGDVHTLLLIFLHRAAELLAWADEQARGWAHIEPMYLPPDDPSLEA
Method: Degradation of the dsDNA liberates free fluorophore to produce a fluorescent signal. Specifically, 7.5 μL of N-terminally His-Tev tagged human TREX2 (residues M44-A279, expressed in E. coli and purified in house) in reaction buffer (50 mM Tris (pH 7.4), 150 mM NaCl, 2 mM DTT, 0.1 mg/mL BSA, 0.01% (v/v) Tween-20 and 100 mM MgCl2) was added to a 384-well Black ProxiPlate Plus (Perkin Elmer) which already contained compound (150 nL) at varying concentrations as a 10 point dose-response in DMSO. To this was added 7.5 μL of dsDNA substrate (Strand A: 5′ TEX615/GCT AGG CAG 3′; Strand B: 5′ CTG CCT AGC/IAbRQSp (IDT)) in reaction buffer. Final concentrations were 2.5 nM TREX2, 60 nM dsDNA substrate in reaction buffer with 1.0% DMSO (v/v). After 25 minutes at room temperature, reactions were quenched by the addition of 5 μL of stop buffer (same as reaction buffer plus 200 mM EDTA). Final concentrations in the quenched reaction mixture were […] TREX2, 45 nM DNA and 50 mM EDTA in a volume of 20 μL. After a 5-minute incubation at room temperature, plates were read in a laser sourced Envision (Perkin-Elmer), measuring fluorescence at 615 nm following excitation w/570 nm light. IC50 values were calculated by comparing the measured fluorescence at 615 nm ratio relative to control wells pre-quenched w/stop buffer (100% inhibition) and no inhibitor (0% inhibition) controls as using non-linear least square four parameter fits and either Genedata or GraphPad Prism (GraphPad Software, Inc.).

HCT116 dual cells = test: HCT116 Cell Assay (Lucia luciferase reporter of Type I interferon induction); format: cell-based, human; details: pBR322/BstNI DNA transfection, Lucia luciferase at 48 h, relative to 10 uM compound 39
Description: HCT116 dual cells (Invivogen, San Diego, Calif., USA) are derived from the human HCT116 colorectal carcinoma cell line. Cells have been selected for the stable integration of SEAP and Luciferase reporter genes, which expression is under the control of 5 tandem response elements for NF-KB/AP1 and STAT1/STAT2, respectively. The cell line was used to monitor Type I interferon induction and subsequent signaling by measuring the activity of the Lucia luciferase secreted in the culture medium.
HCT116 cells were plated in 96-well plate(s) at 40,000 cells/well in 100 uL DMEM supplemented with 10% FBS and 25 mM Hepes (pH 7.2-7.5). After overnight settling, cells were treated with TREX1i for 4 h (maximum DMSO fraction was 0.1%) before 1.25 ug/mL pBR322/BstNI restriction digest (New England Biolabs, Ipswich, Mass., USA) was transfected with Lipofectamine LTX (ThermoFisher, Grand Island, N.Y., USA), according to product manual recommendations. Briefly, Lipofectamine LTX (0.4 uL/well) was diluted in OptiMEM (5 uL/well). pBR322/BstNI (100 ng/well) was diluted in OptiMEM (5 uL/well) before Plus reagent (0.1 uL/100 ng DNA) was added. After 5 min incubation at room temperature, the DNA mixture was mixed dropwise with the diluted Lipofectamine LTX. After an additional 10 min incubation, the transfection mix (10 uL/well) was added to the cells. Cells were maintained at 37° C. for 48 h before monitoring the Lucia Luciferase activity from the cell culture medium. EC50 values were calculated by comparing the measured luminescence relative to 10 uM compound 39 (100% inhibition) and no inhibitor (0% inhibition) controls using non-linear least-squares four parameter fits in either Genedata Screener or GraphPad Prism (GraphPad Software, Inc.).

[2] = Homo sapiens, HCT-116, 4 h pre-treatment

Molecule	IC50 (full length human TREX1) [nM]	IC50 [1] [nM]	EC50 (HCT116 dual cells; [2]) [nM]	EC50 (HCT116 dual cells; 4 h pre-treatment) [nM]
CN(c1nc(C(=O)Nc2cnoc2)c(O)c(=O)n1C)C(C)(c1ccccc1)c1ccccc1 [Example 52]	< 100	1000 to 10000	10000 to 100000	
CN(c1nc(C(=O)Nc2cnoc2)c(O)c(=O)n1C)C(c1ccccc1)c1ccccc1C(F)(F)F (single isomer, unassigned) [Example 83]	< 100	< 1000	< 1000	
CN(c1nc(C(=O)Nc2cnoc2)c(O)c(=O)n1C)C(c1cccc(C#N)c1)c1ccccc1Cl (single isomer, unassigned) [Example 96]	< 100	< 1000		1000 to 10000
CCN(Cc1ccccc1)c1nc(C(=O)Nc2cnoc2)c(O)c(=O)n1C [Example 13, 2-(benzyl(ethyl)amino)-5-hydroxy-N-(isoxazol-4-yl)-1-methyl-6-oxo-1,6-dihydropyrimidine-4-carboxamide]	< 100	1000 to 10000	10000 to 100000	
CN(c1nc(C(=O)Nc2cnoc2)c(O)c(=O)n1C)C(c1ccccc1)c1ccccn1 (single isomer, unassigned) [Example 41]	< 100	< 1000	< 1000	
CN(Cc1ccccc1-c1ccccc1)c1nc(C(=O)Nc2cnoc2)c(O)c(=O)n1C [Example 18]	< 100	1000 to 10000	10000 to 100000	
CN(CCc1ccccc1)c1nc(C(=O)Nc2cnoc2)c(O)c(=O)n1C [Example 3]	100 to 1000	10000 to 100000		
2-(dibenzylamino)-5-ethoxy-N-(isoxazol-4-yl)-1-methyl-6-oxo-1,6-dihydropyrimidine-4-carboxamide [Example 1]	< 100	< 1000		1000 to 10000
CN(c1nc(C(=O)Nc2cnoc2)c(O)c(=O)n1C)C(c1ccccc1)c1cc(F)ccc1Cl (single isomer, unassigned) [Example 88]	< 100	< 1000		< 1000
Cc1cccc(Cl)c1C(c1ccccn1)N(C)c1nc(C(=O)Nc2cnoc2)c(O)c(=O)n1C (single isomer, unassigned) [Example 62]	< 100	< 1000	< 1000	
CN(c1nc(C(=O)Nc2cnoc2)c(O)c(=O)n1C)C(c1ccccc1)c1cc(F)ccc1Cl (single isomer, unassigned) [Example 87]	< 100	< 1000	< 1000	
CN(c1nc(C(=O)Nc2cnoc2)c(O)c(=O)n1C)C1CCCCC1 [Example 72]	100 to 1000	1000 to 10000		
Cc1cc(C(c2ccccc2Cl)N(C)c2nc(C(=O)Nc3cnoc3)c(O)c(=O)n2C)ccn1 (single isomer, unassigned) [Example 90]	< 100	< 1000		1000 to 10000
CN(c1nc(C(=O)Nc2cnoc2)c(O)c(=O)n1C)C(c1ccccc1)c1ccccc1C#N (single isomer, unassigned) [Example 86]	< 100	< 1000		< 1000
C[C@H](c1ccccc1)N(C)c1nc(C(=O)Nc2cnoc2)c(O)c(=O)n1C [Example 27]	< 100	< 1000	1000 to 10000	
Cc1ncc(C(c2ccccc2Cl)N(C)c2nc(C(=O)Nc3cnoc3)c(O)c(=O)n2C)cn1 (single isomer, unassigned) [Example 82]	> 10000	> 100000		
CN(Cc1ccccc1-c1cccc(Cl)c1)c1nc(C(=O)Nc2cnoc2)c(O)c(=O)n1C [Example 17]	< 100	1000 to 10000		
Cc1csc(CN(C)c2nc(C(=O)Nc3cnoc3)c(O)c(=O)n2C)n1 [Example 38]	100 to 1000	1000 to 10000		
CN(Cc1ccncc1)c1nc(C(=O)Nc2cnoc2)c(O)c(=O)n1C [Example 37]	100 to 1000	10000 to 100000		
CN(Cc1cccnc1-c1cccc(Cl)c1)c1nc(C(=O)Nc2cnoc2)c(O)c(=O)n1C [Example 20]	100 to 1000	1000 to 10000		
CN(C)C(=O)c1ccccc1CN(C)c1nc(C(=O)Nc2cnoc2)c(O)c(=O)n1C [Example 75]	100 to 1000	10000 to 100000		
CN(Cc1cncnc1)c1nc(C(=O)Nc2cnoc2)c(O)c(=O)n1C [Example 34]	100 to 1000	10000 to 100000		
CN(C)C(=O)c1ccc(CN(C)c2nc(C(=O)Nc3cnoc3)c(O)c(=O)n2C)cc1 [Example 76]	100 to 1000	10000 to 100000		
CN(Cc1cnn(C)c1)c1nc(C(=O)Nc2cnoc2)c(O)c(=O)n1C [Example 33]	100 to 1000	10000 to 100000		
CN(C)C(=O)c1cccc(CN(C)c2nc(C(=O)Nc3cnoc3)c(O)c(=O)n2C)c1 [Example 77]	100 to 1000	10000 to 100000		
CN(Cc1ccc(C(F)(F)F)cc1)c1nc(C(=O)Nc2cnoc2)c(O)c(=O)n1C [Example 12]	100 to 1000	10000 to 100000		
CN1CCC(C(c2ccccc2)N(C)c2nc(C(=O)Nc3cnoc3)c(O)c(=O)n2C)CC1 (stereo not drawn) [Example 49]	100 to 1000	10000 to 100000		
CC(=O)N1CCC(N(C)c2nc(C(=O)Nc3cnoc3)c(O)c(=O)n2C)CC1 [Example 73]	100 to 1000	10000 to 100000		

Source: patent publication US20220289728A1, “MODULATORS OF TREX1” (Constellation Pharmaceuticals, Inc., priority 2019, published 2022)
